From patent US20240398697A1, “Injectable Formulations” (The University of Liverpool, priority 2021, published 2024)
Read-outs that look alike come from different tables or passages of the source.

What was measured:
[1] = In vivo plasma concentration after microneedle, intramuscular and intravenous administration (Example 22); design: species or system Female Sprague-Dawley rats; settings: 5 mg/kg IV in DMSO/PEG 400/cyclodextrin; monitored 48 hour
Method: Animals were separated into three cohorts; each was comprised of 6 rats. Every 3 rats were housed in a different cage. Each rat of the first cohort (rats 1-6) received four microneedle arrays with a total dose of 16 mg (8 mg of glecaprevir and 8 mg of pibrentasvir). The second cohort (rats 7-12) received intramuscular injections of glecaprevir and pibrentasvir. For each rat, 37.5 mg of the glecaprevir30/pibrentasvir30/[…]10 formulation was dispersed in 300 μL of sterile water, then 150 μL of the solution was injected into each thigh of the rat. The dose given to each rat was approximately […]. The final cohort (rats 13-18) received 5 mg/kg of glecaprevir and pibrentasvir given as IV injections. The IV formulations were prepared by dissolving each drug in 5% v/v DMSO, 10% v/v PEG 400 in water diluted with 20% v/v hydroxy-B-cyclodextrin in water. To minimise the interference of hair in application of the microneedle arrays, the dorsal hair of the rats from the first cohort (rats 1-6) was removed prior to the experiment. The bulk hair was shaved using an electric hair clipper and the remaining hair residuals were removed using depilatory hair removal cream. Rats were then left for a 24 hour period to allow the skin to recover and to ensure complete restoration of skin barrier function before affixing the microneedle arrays. […]

[2] = Terminal half-life of conventional aqueous formulations injected intramuscularly; design: species or system adult male Wistar rats; settings: male, Wistar, rat, in vivo, im
Text: The foregoing experiments have shown that solid compositions comprising microparticles of glecaprevir and/or pibrentasvir may be formed through combination with certain first and second excipients. […] The solid compositions have also been reformulated into implantable rods, and microneedle arrays. Any of the solid compositions, aqueous dispersions, implantable rods, and microneedle arrays are expected to be therapeutically useful based on the known therapeutic uses of glecaprevir and pibrentasvir and the well-tolerated nature of the first and second excipients used. In addition, the form of the solid composition, aqueous dispersion, implantable rod, and microneedle array are expected to provide enhanced pharmacokinetic properties and therapeutic benefits when compared to conventional glecaprevir and pibrentasvir orally-dosed formulations. […] In particular, the formulations comprising microparticles of glecaprevir and/or pibrentasvir as described herein are expected to greatly improve the terminal half-life of the glecaprevir and/or pibrentasvir in vivo as compared to conventional aqueous formulations in which the glecaprevir and/or pibrentasvir are solubilised through addition of DMSO, when the formulations are delivered as intramuscular and/or subcutaneous injections.

[3] = Ex vivo skin deposition, modified Franz diffusion cell; type: in vitro ADME
Method: Ex vivo skin deposition experiments were carried out utilising a modified Franz diffusion cell. Full thickness skin was collected and excised within 24 hours of birth. On the day of the experiment, the skin was first pre-equilibrated in PBS at pH 7.4 for 30 minutes until totally thawed and then carefully shaved using a razor. It was then cyanoacrylate-glued to the donor compartment of the Franz diffusion cells to ensure its adhesion to the set up during the microneedle insertion and throughout the experiment. Microneedle arrays were applied to the skin using firm thumb pressure for 30 seconds. A stainless-steel cylinder (diameter 11 mm, mass 11.5 g) was put on the top of each microneedle array to hold them in place throughout the experiment. The receiver compartment was filled with 12 mL of 1% w/v SLS in PBS (pH 7.4). The donor compartment was clamped on top of the receiver compartment and wrapped with Parafilm® M to prevent solvent evaporation. Samples of 200 μL of the receiver compartment were taken at predefined time points of 0.5, 1, 1.5, 2, 3, 4, 6, 10, and 24 hours and was replaced with the fresh release medium. At 24 hours, the Franz cells were disassembled, the skin surface dabbed clean to remove surface drug, and glecaprevir and pibrentasvir were extracted from skins. Cumulative amounts of glecaprevir and pibrentasvir delivered from each formulation to both skin and receiver compartments were also determined. To extract the drug from the skin, skin samples collected at 24 hours were cut into small pieces, where 0.5 ml of water was added to each sample. They were then homogenised for 15 minutes using a Tissue Lyser LT. Subsequently, 1 mL of methanol was added, and samples were homogenised again for another 15 minutes. Then they were transferred to the tubes followed by adding 3.5 mL of methanol. After a 30-min sonication, 100 μL of the samples were diluted to 1 mL by PBS buffer. The samples were vortexed and centrifuged, then analysed by HPLC.

Row | Compound | plasma concentration after intravenous (IV) administration [1] | half-life ([2]; conventional aqueous formulation (solubilised through addition of DMSO), injected intramuscularly, read-out: terminal half-life (converted)) [h] | deposited into the skin ([3]; from microneedle arrays, over 24 h) [µg] | delivered to the receiver compartment of the Franz diffusion cells ([3]; from microneedle arrays, over 24 h, receiver 1% w/v SLS in PBS pH 7.4) [µg] | total amount delivered to the skin and receiver compartment ([3]; from microneedle arrays, over 24 hours) [µg] | total amount delivered as share of drug initially present in the microneedle arrays ([3]; over 24 hours) [%] | half-life [2] [h] | delivered to the receiver compartment of the Franz diffusion cells ([3]; 24 h, pH 7.4) [µg] | deposited into the skin ([3]; 24 h, pH 7.4) [µg] | total amount delivered as share of drug initially present in the microneedle arrays ([3]; 24 h, pH 7.4) [%] | total amount delivered to the skin and receiver compartment ([3]; 24 h, pH 7.4) [µg]
1 | CC(C)(C)[C@@H]1NC(=O)O[C@@H]2CCC[C@H]2OC/C=C/C(F)(F)c2nc3ccccc3nc2O[C@@H]2C[C@@H](C(=O)N[C@]3(C(=O)NS(=O)(=O)C4(C)CC4)C[C@H]3C(F)F)N(C2)C1=O [glecaprevir, Glecaprevir] | subsided quickly within the 48 hour period | 4 | 285.2 ± 51.3 | 203.9 ± 41.3 | 489.1 ± 68.6 | 25.1±3.5 | – | – | – | – | –
2 | COC(=O)N[C@H](C(=O)N1CCC[C@H]1c1nc2cc([C@H]3CC[C@H](c4cc5nc([C@@H]6CCCN6C(=O)[C@@H](NC(=O)OC)[C@@H](C)OC)[nH]c5cc4F)N3c3cc(F)c(N4CCC(c5ccc(F)cc5)CC4)c(F)c3)c(F)cc2[nH]1)[C@@H](C)OC [pibrentasvir, Pibrentasvir] | – | – | – | – | – | – | 10 | 115.2 ± 29 | 304 ± 45.7 | 23.4±3.2 | 419.2 ± 56.6
